Assay results as given in PubChem BioAssay AID2060362 (Molecular Pharmacology Branch, DTP, NCI, 2025).
Where “and” joins values, the source holds several entries; their conditions need not be identical. Equal entries are not always repeated.

Test system: 128128-338-R-J1-PDC spheroids, viability % test/control
Assay: Anticancer human tumor 128128-338-R-J1-PDC patient-derived melanoma cell line growth inhibition [TAK]
Settings: spheroids with HUVEC and MSC; for viability, T/C: stronger effect = lower value; for IC50: curve of compound
Text: Combinatorial screen of targeted agents with TAK-243 and ipatasertib in multi-cell type tumor spheroids
A high-throughput screen of multi-cell type tumor spheroids was designed to identify active combinations of targeted small molecules and TAK-243 or ipatasertib. Complex spheroids include a stromal component modeled by human endothelial cells (HUVEC) and fibroblasts modeled by human mesenchymal stem cells (MSCs). The concentration ranges selected for each drug and investigational agent were based upon clinically achievable concentrations if the clinical Cmax of the agent was known.
Compounds. The drugs and investigational agents: TAK-243 (785004), ipatasertib (767898), everolimus (733504), selumetinib (741078), bortezomib (756655), trametinib (758246), ixazomib (758254), vemurafenib (761431), dabrafenib (764134), sapanisertib (764658), alpelisib (765974), and copanlisib (816437), were obtained from the National Cancer Institute (NCI) Developmental Therapeutics Program Chemical Repository. The FDA-approved anticancer drug set is available from the NCI Developmental Therapeutics Program. […] The stock solutions were prepared in dimethyl sulfoxide (DMSO, Sigma-Aldrich, St. Louis, MO, cat. D2650) at 800-fold the tested concentration and stored at -70 degrees C prior to their use. All drugs and investigational agents were tested over a range starting from a high concentration at or near the clinical Cmax and decreasing in half-log increments. If the clinical Cmax for an agent had not been determined, the highest concentration tested was 10 microM.
NCI60 Cell Culture. NCI60 cell lines were obtained from the NCI Developmental Therapeutics Program Tumor Repository. For each lot of cells, the Repository performed Applied Biosystems AmpFLSTR Identifiler testing with PCR amplification to confirm consistency with the published Identifier STR profile for each cell line. Cells were kept in continuous culture for no more than 20 passages. The optimal seeding densities for each of the cell lines at each time point assessed were determined prior to performing the concentration response studies. Briefly, the NCI60 human tumor lines were grown as monolayers in RPMI 1640 medium supplemented with 10% FBS and 2 mmol/L L-glutamine.
An additional 2 lines were from the NCI60 cell line panel including melanomas, MALME-3M and SK-MEL-2. Pooled donor human umbilical vein endothelial cells (HUVEC, Lonza, cat. CC-2519) and human mesenchymal stem cells (hMSC, Lonza, cat. PT-2501) were purchased from Lonza (Walkersville, MD).
PDMR cell lines were grown in complete medium (DC medium): Dulbecco's modified Eagle's medium (DMEM)/F12 supplemented with 5% fetal bovine serum (FBS), 2 mM L-glutamine, 100 U/mL penicillin and 100 µg/ml streptomycin, 0.4 µg/ml hydrocortisone, 10 ng/ml epidermal growth factor (EGF) recombinant human protein, 24 µg/mL adenine, and 0.1 mg/mL primocin. During culture from frozen stock vials, PDMR cells were cultured in the same medium containing 10 µM Y-27632 (see Table 3). The PDCs were cultured in complete DMEM/F12 media without 10 microM Y-27632 dihydrochloride for at least two passages prior to the screen. The pooled donor HUVEC and hMSC were cultured in endothelial cell growth medium 2 (PromoCell, Heidelberg, Germany, cat. C-22011) and mesenchymal stem cell growth medium 2 (PromoCell, cat. C-28009), respectively. For all experiments, HUVEC and hMSC were used at passages </=5.
For the pre-screen, cell seeding densities were determined from a titration spanning the range from 5,000 to 313 cells per well. The mct-spheroids including 60% malignant cells, 25% HUVEC and 15% MSC dispensed as a mixture into U-bottom Ultra-Low Attachment 384-well plates (Corning, NY)
High-throughput Drug Combination Screening.
Prior to their inoculation into 384-well plates, malignant cells, HUVEC, and hMSC were removed from T flasks using TrypLE express (Thermo Fisher Scientific, cat. 12605036) and harvested by centrifugation for 5 min at 233 x g. […]
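Further: spheroids exposed to compounds for 7 days.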
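Wherever viability, T/C is given: 100% = DMSO vehicle wells.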

Row | Compound | IC50 | viability, T/C (compound 0.0316 µM) | viability, T/C (compound 0.1 µM) | viability, T/C (compound 0.316 µM) | viability, T/C (compound 1 µM) | viability, T/C (compound 0.000316 µM) | viability, T/C (compound 0.001 µM) | viability, T/C (compound 0.00316 µM) | viability, T/C (compound 0.01 µM) | further results
1 | CC(=O)Nc1cccc(-n2c(=O)n(C3CC3)c(=O)c3c(Nc4ccc(I)cc4F)n(C)c(=O)c(C)c32)c1 | 2.32 nM and 1.58 nM | – | – | – | – | – | – | – | – | viability, T/C (compound 94.9 pM): 98.2% and 101%; viability, T/C (compound 0.0003 µM): 97.9% and 94.4%; viability, T/C (compound 0.000949 µM): 82.8% and 70%; viability, T/C (compound 0.003 µM): 41.4% and 25.6%; viability, T/C (compound 0.00949 µM): 5.07% and 3.1%; viability, T/C (compound 0.03 µM): 2.37% and 2.18%
2 | CC(C)(C)c1nc(-c2cccc(NS(=O)(=O)c3c(F)cccc3F)c2F)c(-c2ccnc(N)n2)s1 | 44.7 nM and 43.6 nM | 61.1% and 60.1% | 23.9% and 24% | 4.21% and 5.44% | 2.39% and 2.26% | – | – | – | – | viability, T/C (compound 3.16 µM): 2.82% and 2.69%; viability, T/C (compound 10 µM): 17.2% and 16.2%
3 | CC(C)CC(NC(=O)C(Cc1ccccc1)NC(=O)c1cnccn1)B(O)O (stereo not given) | 1.88 nM and 1.73 nM | – | – | – | – | 99.3% and 93% | 102% and 90.6% | 6.95% and 5.71% | 0.2% and 0.52% | viability, T/C (compound 31.6 pM): 107% and 105%; viability, T/C (compound 0.0001 µM): 108% and 96.7%
4 | CC(C)CC(NC(=O)CNC(=O)c1cc(Cl)ccc1Cl)B1OC(=O)CC(CC(=O)O)(C(=O)O)O1 (stereo not given) | 8.17 nM and 8.06 nM | 3.88% and 2.92% | 0.22% and 0.2% | – | – | 102% and 104% | 95.7% and 102% | 102% and 99% | 39.4% and 38.7% | –
5 | CC(C)NCC(C(=O)N1CCN(c2ncnc3c2C(C)CC3O)CC1)c1ccc(Cl)cc1 (stereo not given) | – | – | – | – | – | – | – | – | – | viability, T/C (compound 0.3 µM): 102% [middle of 10 runs]; viability, T/C (compound 0.949 µM): 93% [middle of 10 runs]; viability, T/C (compound 3 µM): 89.2% [middle of 10 runs]; viability, T/C (compound 9.49 µM): 69.5% [middle of 10 runs]; viability, T/C (compound 30 µM): 22.7% [middle of 10 runs]
6 | CC(C)n1nc(-c2ccc3oc(N)nc3c2)c2c(N)ncnc21 | 16.9 nM and 15.7 nM | 31.2% and 30.5% | 6.18% and 6.1% | – | – | 99.1% and 106% | 94.7% and 96.1% | 83.2% and 80.7% | 67.3% and 64.7% | –
7 | CCCS(=O)(=O)Nc1ccc(F)c(C(=O)c2c[nH]c3ncc(-c4ccc(Cl)cc4)cc23)c1F | 1290 nM and 1280 nM | – | – | 79.4% and 79.2% | 60.5% and 59.8% | – | – | – | – | viability, T/C (compound 3.16 µM): 12.7% and 14.3%; viability, T/C (compound 10 µM): 0.39% and 0.64%; viability, T/C (compound 31.6 µM): 1.44% and 0.22%; viability, T/C (compound 100 µM): 1.11% and 5.48%
8 | COC1CC2CCC(C)C(O)(O2)C(=O)C(=O)N2CCCCC2C(=O)OC(C(C)CC2CCC(OCCO)C(OC)C2)CC(=O)C(C)C=C(C)C(O)C(OC)C(=O)C(C)CC(C)C=CC=CC=C1C (stereo not given) | > 100 nM | 64.5% and 67.5% | 51.6% and 53.8% | – | – | 108% and 104% | 102% | 96.4% and 93.1% | 79.5% and 86.7% | –
9 | COc1c(OCCCN2CCOCC2)ccc2c3n(c(=NC(=O)c4cnc(N)nc4)nc12)CCN3 | 173 nM and 153 nM | 99.3% and 84.1% | 75.9% and 72% | 21.6% and 15.2% | 8.68% and 5.59% | – | – | 109% and 105% | 99.4% and 96.6% | –
10 | Cc1nc(NC(=O)N2CCCC2C(N)=O)sc1-c1ccnc(C(C)(C)C(F)(F)F)c1 (stereo not given) | > 10000 nM | 96.8% and 97.9% | 98% and 97.4% | 96% and 95.9% | 96.9% and 92.3% | – | – | – | – | viability, T/C (compound 3.16 µM): 90.8% and 88.5%; viability, T/C (compound 10 µM): 81.5% and 71.4%
11 | Cn1cnc2c(F)c(Nc3ccc(Br)cc3Cl)c(C(=O)NOCCO)cc21 | 72.1 nM and 94.6 nM | – | – | – | – | – | – | – | – | viability, T/C (compound 0.00949 µM): 95.7% and 94.9%; viability, T/C (compound 0.03 µM): 75.4% and 82.6%; viability, T/C (compound 0.0949 µM): 44.2% and 50.7%; viability, T/C (compound 0.3 µM): 9.03% and 14.9%; viability, T/C (compound 0.949 µM): 3.38% and 4.34%; viability, T/C (compound 3 µM): 3.13% and 2.58%
